Measured values from patent US20210338648A1, “METHODS AND COMPOSITIONS FOR REDUCING SERUM URIC ACID” (AstraZeneca AB, priority 2018, published 2021).
“Also recorded” adds a separate entry of the source.

How the values were obtained:
[1] = co-administration, Day 7
Procedure: This study was a randomized, placebo controlled, double-blind, 2-way crossover study conducted on asymptomatic hyperuricemic patients.
On Day −2 of Treatment period 1, patients were randomized (1:1) to 1 of 2 treatment sequences (AB or BA). […] On Day 1, after all dosing and all assessments were performed, patients received instruction to administer the IMP at home once daily in the morning from Day 2 to Day 6 and the IMP dispensed for home dosing. Patients returned to the Clinical Unit on Day 6 and were residential in the Clinical Unit from Day 6 to Day 8.

[2] = Phase 2 crossover study: serum uric acid (sUA) after 7 days of treatment; type: in vivo, human; conditions: dapagliflozin added to verinurad + febuxostat; D7
Text: (§1) Thirty-six asymptomatic hyperuricemic patients aged 18 to 65 years (inclusive) were enrolled into this study at two study centers. Twenty-four patients were enrolled and completed the study. Due to inadequate urine sampling, 12 additional patients were included to ensure an adequate sample size (at least 20 evaluable patients) to evaluate the effects of intensive UA lowering with verinurad, febuxostat and dapagliflozin on urinary excretion of UA. With 24 completers available during the interim analysis, this will provide for a total sample size of 36 evaluable patients.
• 1. […] At screening: One sUA assessment. […] Area under plasma concentration time curve over a dosing interval (24 hours) (AUCτ) assessment for verinurad and its main metabolites, febuxostat, and dapagliflozin [Time Frame: On Treatment Period 1 and 2: Day 7 (Pre-dose and 15 minutes, 30 minutes, 1 hour, 1.5, 2, 3, 4, 8, 12 and 24 hours post-dose)] • To assess AUCT after administration of single oral fixed dose of verinurad+febuxostat+dapagliflozin/placebo • 3. […]

[3] = Phase 2 crossover study: urinary excretion of uric acid (uUA); type: in vivo, human
Text: Thirty-six asymptomatic hyperuricemic patients aged 18 to 65 years (inclusive) were enrolled into this study at two study centers. Twenty-four patients were enrolled and completed the study. Due to inadequate urine sampling, 12 additional patients were included to ensure an adequate sample size (at least 20 evaluable patients) to evaluate the effects of intensive UA lowering with verinurad, febuxostat and dapagliflozin on urinary excretion of UA. With 24 completers available during the interim analysis, this will provide for a total sample size of 36 evaluable patients. Before any study specific assessments were performed, potential patients provided informed consent. Each patient underwent the below mentioned visits: • A Screening period of maximum 28 days; • Two treatment periods during which patients were resident in the Clinical Unit from Day −2 to Day 1 and from Day 6 to Day 8; and • A Follow-up Visit within 14 to 28 days after the first administration of Investigational Medicinal Product (IMP) in Treatment Period 2. […] Treatment Period 1 and Treatment Period 2 were separated by a washout period of 7 to 21 days. • 1.

[4] = Phase 2 crossover study: safety and tolerability (adverse events, serum creatinine, serum sodium); type: in vivo, human; conditions: Grp1 vs Grp2
Text: as §1, with “patients. […] At screening: One sUA assessment. […] On Treatment Period 1 and 2: […] On Treatment Period 1 and 2: […] Systolic blood pressure [SBP] […] Diastolic blood pressure [DBP]” for “patients.”

effect on febuxostat pharmacokinetics [1]: did not affect | effect on verinurad pharmacokinetics [1]: did not affect | total 24 h uUA excretion (result in words) ([3]; dapagliflozin added to verinurad + febuxostat vs placebo, 24 h urine, all subjects): no difference
SMILES: CCOc1ccc(Cc2cc([C@@H]3O[C@H](CO)[C@@H](O)[C@H](O)[C@H]3O)ccc2Cl)cc1 [dapagliflozin]
sUA levels (result in words) [2]: significantly reduced; also recorded: additional sUA lowering | peak uUA excretion (result in words) ([3]; dapagliflozin 10 mg/day added to verinurad 9 mg/day + febuxostat 80 mg/day, D7): no increase; also recorded: without an increase in uUA excretion | serum creatinine (sCr), between-group difference [4]: without an increase in uUA excretion, or changes in sCr
